Source: patent US8399510B2, “Method of activating NK cells” (University of South Florida, priority 2007, dated 2013)
pIC50: −log10 of the molar value.

Experiments:
SHIP−/− LAK cells = assay: 4 hour 51Cr release cytolysis assay with SHIP−/− LAK cells; format: cell-based
Description: (§1) NK cells were magnetically enriched from whole splenocytes using the Miltenyi mouse NK cell enrichment kit and an Automac (Miltenyi) per the manufacturer's instructions. Magnetically enriched cells were plated at 2×10^6 cells/mL in the presence of 2000 units/mL human rIL-2 (Proleukin). Non-adherent cells were removed on day 2 and media replaced as necessary. On day 7 a standard 4 hour chromium release assay was performed. Briefly, target cells were loaded with 100 μCi of 51Cr per 1×10^6 cells for 60 minutes at 37° C. The target and lymphokine activate killer (LAK) 3 cells were then incubated together at 37° C. for 4 hours in the presence of inhibitors or media alone. Supernatants were collected and measured for radioactivity on a gamma counter (Perkin Elmer Wizard1470).
(§2) All experiments using sodium orthovanadate (NaOV) were performed with 100 μM activated NaOV. NaOV was activated by adjusting the pH of a 200 mM stock to pH 10.0 by the addition NaOH or HCl followed by boiling until the solution becomes colorless and then cooling to room temperature. This process is then repeated until the pH of the NaOV stabilizes at 10.0 (44). NaOV was added to the wells of the killing assay with the LAK cells 15 to 30 min prior to adding target cells at room temperature. NSC119910 was obtained from the Drug Synthesis and Chemistry Branch, Developmental Therapeutics Program, Division of Cancer Treatment and Diagnosis, NCI. The structure of NSC119910 was confirmed by proton NMR using a Varian Mercury-Plus, Oxford AS400 spectrometer. The 1H NMR spectrum was recorded at 400 MHz using DMSO-d6 as solvent and tetramethylsilane (TMS) as an internal standard. Chemical shift values are reported in parts per million (δ). […] 25 times this IC50 was established as the effective dose for NK cell based assays. NSC119910 was added immediately before the addition of target cells on ice. Both compounds were tested at their working concentration for the ability to kill and/or lyse the target cells without LAK cells being present.
Given the inappropriate degree of SHP1 recruitment to 2B4 in SHIP^−/− NK cells, the possibility of using chemical inhibitors to block its tyrosine phosphatase activity was explored to determine if this could restore killing of complex targets by SHIP-deficient NK cells. Standard four-hour 51Cr release assays were performed with SHIP^−/− (−/−) or WT (+/+) LAK cells, with a ratio of 30:1 and 3000 target cells for all conditions. NaOV (100 μM) was used first, a broadly acting tyrosine phosphatase inhibitor to counteract the effects of the SHP1 over-recruitment to 2B4, with a medium-only negative control. […] In fact, SHIP-deficient NK cytolysis of RMA parental targets exceeds that of WT LAK cells. This supernormal killing has been consistently observed against RMA targets in three separate studies with NaOV-treated SHIP^−/− LAK cells. This finding indicates phosphatase inhibition can restore the ability of SHIP^−/− NK cells to kill complex targets via NKG2D, while also expanding the capacity of SHIP-deficient NK cells to kill tumor cells in the absence of ligands for NKG2D.
Next, the ability of NSC119910 to restore killing in the SHIP^−/− NK cell was tested. The effective in vitro dose at which NSC119910 was able to restore SHIP^−/− cytotoxicity was determined in a dose titration experiment. Through this, 67.32 μM was identified as the effective dose (data not shown). This concentration of 67.32 μM of NSC119910 was used for all subsequent standard 4-hour 51Cr release assays, performed with SHIP^−/− (^−/−) or WT (^+/+) LAK cells and using a ratio of 30:1 and 3000 target cells in the presence of 67.32 μM NCI119910 or media alone (−). […] The experiments were repeated, using M157+ BaF3 transfectants were used as targets (FIG. 5D). SHIP^−/− (^−−) or WT (^++) cells were incubated with 67.32 μM NSC119910 (119910) or media alone (CNT) for 4 hours. The cells were then stained for NK1.1, TCR-β and NKG2D and analyzed for NKG2D expression. […]

WT LAK cells = assay: 4 hour 51Cr release cytolysis assay with WT LAK cells; format: cell-based, mouse
Description: as §1, §2
Given the inappropriate degree of SHP1 recruitment to 2B4 in SHIP^−/− NK cells, the possibility of using chemical inhibitors to block its tyrosine phosphatase activity was explored to determine if this could restore killing of complex targets by SHIP-deficient NK cells. Standard four-hour 51Cr release assays were performed with SHIP^−/− (−/−) or WT (+/+) LAK cells, with a ratio of 30:1 and 3000 target cells for all conditions. […]
Next, the ability of NSC119910 to restore killing in the SHIP^−/− NK cell was tested. The effective in vitro dose at which NSC119910 was able to restore SHIP^−/− cytotoxicity was determined in a dose titration experiment. […] The cells were then stained for NK1.1, TCR-β and NKG2D and analyzed for NKG2D expression. […]

SHP2 = molecular target: T1, SHP2 (Homo sapiens, UniProt Q06124); assay: PTP inhibition assay (DiFMUP substrate), SHP2; format: biochemical; settings: in vitro phosphatase activity, versus PTP1b
T1 sequence (Q06124 1-593): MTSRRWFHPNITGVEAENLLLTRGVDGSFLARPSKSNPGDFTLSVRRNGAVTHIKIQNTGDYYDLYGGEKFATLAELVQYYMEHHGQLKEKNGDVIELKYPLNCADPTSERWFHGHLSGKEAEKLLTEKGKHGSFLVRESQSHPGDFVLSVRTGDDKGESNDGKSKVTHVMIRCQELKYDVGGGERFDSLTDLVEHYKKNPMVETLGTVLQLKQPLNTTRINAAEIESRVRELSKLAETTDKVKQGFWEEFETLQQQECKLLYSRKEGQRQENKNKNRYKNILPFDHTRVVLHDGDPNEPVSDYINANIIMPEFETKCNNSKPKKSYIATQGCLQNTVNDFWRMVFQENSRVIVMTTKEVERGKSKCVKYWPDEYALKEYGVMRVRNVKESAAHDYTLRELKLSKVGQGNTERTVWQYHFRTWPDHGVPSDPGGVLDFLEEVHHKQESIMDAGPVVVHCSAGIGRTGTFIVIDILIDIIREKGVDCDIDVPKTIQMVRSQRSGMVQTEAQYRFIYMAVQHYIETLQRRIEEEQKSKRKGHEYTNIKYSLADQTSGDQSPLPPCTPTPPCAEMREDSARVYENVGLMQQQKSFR
Description: (§3) PTP activity was measured using the fluorogenic 6,8-difluoro-4-methylumbelliferyl phosphate (DiFMUP; Invitrogen, Carlsbad, Calif.) as the substrate. Each reaction contained 25 mM HEPES, 50 mM NaCl, 0.05% Triton, 1 mM dithiothreitol, 20 μM DiFMUP, 10 nM Microcystin LR, 20 nM GST-PTP, and 10 μl of test compound or dimethyl sulfoxide (solvent) in a total reaction volume of 100 μl in black 96-well plates. Reaction was initiated by addition of DiFMUP, and the incubation time was 30 min at room temperature. DiFMUP fluorescence signal was measured at an excitation of 355 nm and an emission of 460 nm with a plate reader (Victor2 1420; PerkinElmer Wallac, Gaithersburg, Md.). IC50 was defined as the concentration of an inhibitor that caused a 50% decrease in the PTP activity. For IC50 determination, eight concentrations of NSC119910 at one-third dilution (˜0.5 log) were tested. The ranges of NSC119910 concentrations used in each PTP assay were determined from preliminary trials. Each experiment was performed either in triplicate or duplicate, and IC50 data were derived from at least two independent experiments. The curve-fitting program Prism 4 (GraphPad Software, San Diego, Calif.) was used to calculate IC50 values.

NKG2D = NKG2D expression on LAK cells (staining for NK1.1, TCR-β, NKG2D); format: cell-based, mouse; settings: 67.32 μM NSC119910, 4 hours; SHIP−/− or WT cells
Description: Next, the ability of NSC119910 to restore killing in the SHIP^−/− NK cell was tested. The effective in vitro dose at which NSC119910 was able to restore SHIP^−/− cytotoxicity was determined in a dose titration experiment. Through this, 67.32 μM was identified as the effective dose (data not shown). This concentration of 67.32 μM of NSC119910 was used for all subsequent standard 4-hour 51Cr release assays, performed with SHIP^−/− (^−/−) or WT (^+/+) LAK cells and using a ratio of 30:1 and 3000 target cells in the presence of 67.32 μM NCI119910 or media alone (−). […] The experiments were repeated, using M157+ BaF3 transfectants were used as targets (FIG. 5D). SHIP^−/− (^−−) or WT (^++) cells were incubated with 67.32 μM NSC119910 (119910) or media alone (CNT) for 4 hours. The cells were then stained for NK1.1, TCR-β and NKG2D and analyzed for NKG2D expression. The addition of NSC119910 to LAK cells had no effect on the expression levels of NKG2D (FIG. 5E). The experiments were also performed with m157^+ BaF3 targets. […] Although the increase is not as dramatic as observed with NKG2D mediated cytolysis, this increase has been observed consistently in multiple cytolysis assays with the m157^+ BaF3 targets. […]

SHP1 = SHP1 (Homo sapiens, UniProt P29350); assay: PTP inhibition assay (DiFMUP substrate), SHP1; format: biochemical
Description: as §3

[1] = 67.32 μM NSC119910, ratio 30:1, 3000 target cells
[2] = 100 μM NaOV, ratio 30:1, 3000 target cells

Chain of SHP1 (P29350 whole entry): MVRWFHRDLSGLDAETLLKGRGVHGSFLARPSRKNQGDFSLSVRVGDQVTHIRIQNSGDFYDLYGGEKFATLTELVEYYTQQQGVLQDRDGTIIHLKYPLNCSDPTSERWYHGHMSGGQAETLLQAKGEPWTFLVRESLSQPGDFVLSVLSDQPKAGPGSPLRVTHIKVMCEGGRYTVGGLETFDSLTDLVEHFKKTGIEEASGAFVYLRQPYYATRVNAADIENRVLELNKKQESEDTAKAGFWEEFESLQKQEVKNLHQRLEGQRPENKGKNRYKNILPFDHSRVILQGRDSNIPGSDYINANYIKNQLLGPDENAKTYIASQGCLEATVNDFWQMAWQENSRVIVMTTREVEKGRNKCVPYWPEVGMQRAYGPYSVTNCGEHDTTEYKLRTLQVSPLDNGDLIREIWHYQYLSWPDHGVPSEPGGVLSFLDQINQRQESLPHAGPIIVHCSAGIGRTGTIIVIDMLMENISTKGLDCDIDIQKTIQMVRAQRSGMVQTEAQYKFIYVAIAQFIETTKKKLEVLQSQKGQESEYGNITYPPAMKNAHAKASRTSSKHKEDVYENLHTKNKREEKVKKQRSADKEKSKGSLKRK

Question: How did the “killing of m157+ BaF3 targets by SHIP−/− NK cells” value (SHIP−/− LAK cells; 67.32 μM NSC119910) turn out when `O=C(O)C1CCCCC1c1c2ccc(=O)c(O)c-2oc2c(O)c(O)ccc12` (stereo not shown) [NSC119910] was run?
Answer: increased

Question: And the “killing of Rae1+ RMA targets by SHIP−/− NK cells” value (SHIP−/− LAK cells; [1])?
Answer: significantly restored killing

Question: And the “killing of parental RMA targets by SHIP−/− NK cells” value (SHIP−/− LAK cells; [1])?
Answer: significantly restored killing

Question: What about the “effective in vitro dose restoring SHIP−/− cytotoxicity” value (SHIP−/− LAK cells; dose titration experiment (data not shown)) of the same molecule?
Answer: 67.32 µM

Question: What about the “cytolytic activity of WT NK cells against Rae1+ targets” value (WT LAK cells; [1]) of the same molecule?
Answer: no effect

Question: And the “killing of m157+ cells by WT LAK cells” value (WT LAK cells; NSC119910, compared with the increase seen with NaOV)?
Answer: the same increase of killing of m157^+ cells by WT LAK cells was not seen

Question: What about the “killing of RMA cells by WT NK cells” value (WT LAK cells; in the presence of NSC119910) of the same molecule?
Answer: increase

Question: What about the “selectivity to SHP2 over PTP1b” value (SHP2) of the same molecule?
Answer: approximately 100 fold

Question: What about the “expression levels of NKG2D on LAK cells” value (NKG2D) of the same molecule?
Answer: no effect

Question: What about the “selectivity to SHP1 over PTP1b” value (SHP1; in vitro phosphatase activity, versus PTP1b) of the same molecule?
Answer: approximately 10 fold

Question: And the pIC50 (SHP1; purified SHP1, read-out: cell free, in vitro IC50 using purified SHP1)?
Answer: 5.57

Question: Which results are given for `[Na+].[Na+].[Na+].[O]=[V]([O-])([O-])[O-]` [NaOV, Sodium orthovanadate, reference compound]?
Answer: killing of m157+ BaF3 targets by SHIP−/− NK cells (SHIP−/− LAK cells; 100 μM NaOV): able to increase the capacity; killing of parental BaF3 targets by SHIP−/− NK cells (SHIP−/− LAK cells; 100 μM NaOV): able to increase the capacity; killing of RMA parental targets by SHIP−/− LAK cells (SHIP−/− LAK cells; [2]): increased the capacity; killing of Rae1+ RMA targets by SHIP−/− LAK cells (SHIP−/− LAK cells; [2]): restore cellular ability to mediate efficient killing; killing of RMA or RMA-Rae1+ targets by WT LAK cells (WT LAK cells; [2]): increased killing by WT LAK cells was not seen
